# Source: patent US20130065763A1, “Biocide Compositions Comprising Isoamyl Lactate” (priority 2010, published 2013)
# Experiment: Solubility in water of each lactate
# Assay type: physicochemical
# Conditions: for Solubility in Water: solubility of the lactate solvent in water, yes = water soluble
# Experimental: Solubility of several pesticides was measured in Isoamyl lactate versus other lactates. In addition the solubility in water of each lactate has been checked.
Solubility in Water,Water solubility (statement in description),SMILES
<1%,not water soluble,"CC(C)CCOC(=O)C(C)O (stereo not shown) [Example 6, Isoamyl lactate]"
yes,–,"CCCCOC(=O)C(C)O (stereo not shown) [Example C3, Butyl lactate]"
yes,–,"CC(C)OC(=O)C(C)O (stereo not shown) [Example C4, Isopropyl lactate]"
